These results are taken from PubChem BioAssay (NCI).

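Five compound concentrations were applied to cells in 96-well plates for 48 hours; endpoints were derived by simple linear interpolation of the resulting dose-response curve. GI50 is the concentration that inhibits growth by half. TGI: concentration producing complete growth inhibition.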 Bounds are passed on as bounds.

Assay in all cases: growth of human tumour cells (NCI), 48 h
Assay [1] relates to HCT-15 colon.
For assay [2], the system named is NCI/ADR-RES ovarian.
Assay [3] relates to OVCAR-5 ovarian.
Assay [4] relates to RXF 393 renal.
The subject of assay [5] is SK-MEL-5 melanoma.
Assay [6] has as its system SK-OV-3 ovarian.
The subject of assay [7] is UACC-257 melanoma.
Assay [8] concerns 786-0 renal.
Assay [9] relates to M14 melanoma.
The subject of assay [10] is MDA-N.
The subject of assay [11] is TK-10 renal.

In the case of `CCOC(=O)CN(CC)C(=O)NC12CC3CC(CC(C3)C1)C2`, the TGI is 646 µM in [1]; greater than 680 µM in [2]; 545 µM in assay [3]; 509 µM in assay [4]; 211 µM in assay [5]; 513 µM in [6]. The TGI in assay [7] worked out at 433 µM.

For `O=C(OC[C@H]1C[C@H]2C(=O)OCCC[C@H]2O1)c1ccccc1`, the TGI in [8], in assay [1], in assay [9], in assay [10], in assay [2] and in assay [3] was greater than 100 µM throughout. In addition, the TGI in [5], in assay [6], in [11] and in assay [7] was greater than 100 µM each time.

`COc1ccc2nc(-c3ccc(N)cc3)sc2c1`: the TGI in assay [8], in assay [1], in assay [9], in assay [2], in assay [3] and in [4] was greater than 100 µM throughout. The TGI in [5], in assay [6], in assay [11] and in assay [7] was greater than 100 µM in each case.

Consider `O=C1C=C2SC3C[C@@]24CC1(O)[N+]1=c2c4c(c(O)c4c2=C(C=N4)CC1)N3`, for which the TGI turned out to be 3.92 µM in assay [1]; 2.78 µM in assay [2]; 3.8 µM in assay [3]; 2.71 µM in [4]; 2.91 µM in [5]; 3.78 µM in [6]. This molecule also registered a TGI in assay [7] of 2.42 µM.

With `Cc1ccc(-c2ccc3c(c2)Sc2ccccc2O3)n1C`, the TGI was greater than 100 µM in assay [8]; greater than 100 µM in assay [1]; greater than 65.4 µM in assay [9]; 12.6 µM in [2]; greater than 52.9 µM in [3]; 11.4 µM in assay [4]. Besides, the TGI was 39.1 µM in [5], greater than 100 µM in assay [6], greater than 100 µM in assay [11] and greater than 100 µM in assay [7].

With `C=CC[PH+](c1ccccc1)c1ccccc1.C=CC[PH+](c1ccccc1)c1ccccc1.[Pt+2].[S-]c1nc2ccccc2[nH]1.[S-]c1nc2ccccc2[nH]1`, the GI50 is 6.34 µM in [1]; 47.1 µM in assay [2]; 2.14 µM in assay [3]; 2610 nM in assay [4]; 3.16 µM in assay [6]; 3290 nM in assay [11]. Also, the TGI in [1] was greater than 100 µM; in assay [2], greater than 100 µM; in assay [3], 5.42 µM; in assay [4], 7.06 µM; in assay [6], 27.4 µM; in [11], 67.4 µM.

On to `CC1(C)OCC(/C=C\C(O)CC2(C)OCCO2)CO1` (configuration not stated), for which the TGI in assay [8], in [1], in [9], in [10], in assay [2] and in assay [3] was greater than 100 µM each time. In addition, the TGI in assay [5], in assay [6], in assay [11] and in assay [7] was greater than 100 µM throughout.

In the case of `CN(C)CCCn1c(-c2ccc(Br)cc2)csc1=Nc1ccccc1`, the TGI in assay [1] was 71 µM; in assay [9], 32.9 µM; in assay [10] it was greater than 100 µM; in assay [2] it was 35.7 µM; in assay [3], 36.3 µM; in [4] it was 29.8 µM. Also, the TGI came out at 40.4 µM in [6], 31.7 µM in assay [11] and 29.8 µM in assay [7].

Turning to `COc1ccc(C(CC(=O)c2cccs2)C(=O)c2ccc3c(c2)OCO3)cc1` (configuration not stated), the TGI in assay [1], in assay [9], in assay [10], in assay [2], in assay [5] and in assay [6] was greater than 100 µM each time. In addition, the TGI in assay [11] and in [7] was greater than 100 µM in each case.

`Cc1c(CCCl)c(Cl)n2c(nc3ccccc32)c1C#N`: the TGI in [1] is 1.98 µM; in assay [9], 3.06 µM; in assay [3] it was 4.1 µM; in [4], 3 µM; in [5], 2.35 µM; in assay [6], greater than 56.4 µM. The TGI in assay [11] turned out to be 3.84 µM; in [7], 3.07 µM.

For `O=C(O)c1ccccc1Sc1ccc(C=C2NC(=S)N(c3ccccc3)C2=O)s1`, the TGI is 35.8 µM in assay [8]; greater than 100 µM in assay [1]; greater than 100 µM in [10]; greater than 100 µM in [2]; greater than 100 µM in [3]; greater than 100 µM in [4]. The TGI in assay [5], in assay [11] and in [7] was greater than 100 µM in each case.

For the molecule `CCCOC(=O)CCC(NC(=O)c1ccc(Nc2nc3ccccc3nc2-c2cccs2)cc1)C(=O)OCCC` (configuration not stated), the TGI in assay [1], in assay [3], in assay [4], in assay [5], in assay [6] and in [11] was greater than 100 µM throughout.

Take `CC(NC(CC12CC3CC(CC(C3)C1)C2)C(N)=O)c1ccccc1` (configuration not stated): the TGI in [1] is greater than 100 µM; in [9] it was 45.7 µM; in [10], 75.6 µM; in [2], 48 µM; in assay [3], 42.5 µM; in assay [5], 26.3 µM. Besides, the TGI in [6] is greater than 100 µM; in [11] it was greater than 100 µM; in [7], 41.8 µM.

As for `c1c2c(cc3c1OCO3)-c1ncc3cc4c(cc3c1C2)OCO4`, the TGI in assay [8] is 44.2 µM; in assay [1], 24.8 µM; in assay [9] it was greater than 100 µM; in assay [2], 52.4 µM; in assay [3], greater than 100 µM; in assay [4], 43.5 µM. For the same molecule, the TGI amounted to 0.479 µM in assay [5], 26.8 µM in assay [6] and 3.87 µM in assay [11]. Moreover, the GI50 in assay [1] is less than 0.01 µM; in [9] it was less than 10 nM; in assay [2] it was 0.0508 µM; in [3], 44.7 µM; in assay [4], 797 nM; in assay [5] it was 216 nM. Moreover, the results for the GI50 in assay [6] and in [11] were less than 0.01 µM and 143 nM, respectively.
